This note sets out measurements from patent US20220389019A1, “TrkB POSITIVE ALLOSTERIC MODULATORS” (Université de Strasbourg, priority 2019, published 2022).

Experiment [1] deals with TrkB. The experiment can be described thus: TrkB phosphorylation assay: potentiation of BDNF-induced TrkB phosphorylation in cortical neurons. The experiment is classed as cell-based. The conditions noted are these: potentation at a PAM concentration of 10 nM of 0.4 nM BDNF-induced TrkB phosphorylation in cortical neurons. The text has this: It is meant by “positive allosteric modulator” (PAM), also known as allosteric enhancer or potentiator, a compound that induces an amplification of the effect of receptor's response to the primary ligand without directly activating the receptor. Within this invention, PAM TrkB activity is related to the potentation of BDNF effects on the functional activity of the TrkB receptor, measured in vitro or in vivo by mean of a specific TrkB receptor phosphorylation assay.
In Vitro Activity of LIT-TB Derivatives in a TrkB Phosphorylation Assay

Experiment [2] addresses TrkB (Mus musculus, UniProt P15209). The conditions noted are these: C57BL/6 male mice, 0.5 and 1 mg/kg i.p., 1 h, cortex and hippocampus, western blot.
Protocol: After 1 hour (unless indicated otherwise), mice were decapitated, blood was collected and brains were rapidly removed on ice. […] The Anti-TrkB antibody is used to quantify the total amount of TrkB. Anti-tubulin is used as a loading control. […] Phosphorylated levels of TrkB are calculated as a ratio between phospho and total TrkB bands in each region
A volume of 10 μl/g body weight was injected. After 1 hour (unless indicated otherwise), mice were decapitated, blood was collected and brains were rapidly removed on ice. Cortex and hippocampus were subsequently dissected and tissues were rapidly washed in ice-cold PBS and transferred into ice-cold solubilization buffer before homogenization at 4° C. Samples were centrifuged at 10,000×g for 10 min at 4° C. Protein concentrations were determined, equal amounts of proteins were loaded, and western blots were performed as described above.
C57Bl6 male mice received an i.p injection of 0.5 and 1 mg/kg for 1 hour before their brain was carefully removed and their cortex and hippocampus were sub-dissected. […] The level of TrkB phosphorylation at Tyrosine 816 was analyzed by western blot (FIG. 3).
Experiment [3] addresses TrkB (Homo sapiens, UniProt Q16620). The conditions noted are these: PC12-TrkB cells, BDNF 1 nM. How it is done: (§1) Nnr5 PC12-TrkA and nnr5 PC12-TrkB cells are NGF-nonresponding mutant PC12 cells stably transfected with TrkA and TrkB, respectively. Activation of TrkA and TrkB was assessed in nnr5 PC12-TrkB or -TrkA cells by quantifying the level of phospho-Trk at Tyrosine 706 (Y706) after addition of BDNF (1 nM) or NGF (2 nM), respectively, for 15 min in presence or absence of TB001 at various concentrations (0.1, 10 and […]), as previously done. Activation of downstream signaling pathway was assessed by quantifying phospho-ERK in the same cells. Neurite outgrowth was determined by counting the number the number of cells bearing neurites longer than 2 cells in diameter, 48 hours after initial treatment, as described earlier.
(§2) Selectivity of LIT-TB001 toward signaling activation and biological function was tested in PC12-TrkB or PC12-TrkA cells, in presence of BDNF (TrkB) or NGF (TrkA). Key experiments were recapitulated in either TrkA or TrkB-expressing cells to test for TB selectivity: Trk phosphorylation, ERK phosphorylation and neurite outgrowth (FIG. 1).

Another experiment relates to PC12-TrkB cells. The conditions noted are these: BDNF, 48 hours. How it is done: as §1, §2
The target of another experiment is TrkA (Homo sapiens, UniProt P04629). The note with it: PC12-TrkA cells, presence or absence of NGF (2 nM). The procedure:
as §1, §2

In another experiment the test system is 45 kinases. The experiment can be described thus: Kinome profile (ExpresS Diversity Kinase Panel, TR-FRET LANCE). The experiment is classed as biochemical. The conditions noted are these: 10 μM. The procedure: FIG. 2 represents the […] inhibition of the catalytic activity of 45 kinases (ExpresS Diversity Kinase Panel, Eurofins Discovey, item # P10) by LIT-TB001 at a concentration of 10 μM. For each kinase, the effect of the compound on the ATP-induced kinase-mediated substrate phosphorylation is measured by the TR-FRET LANCE technology.
A kinome profile was next performed to test LIT-TB001 selectivity toward other kinases.
(In TR-FRET formats the signal depends on donor and acceptor labels being close together.)

TrkA, sequence (P04629 33-796, species assumed): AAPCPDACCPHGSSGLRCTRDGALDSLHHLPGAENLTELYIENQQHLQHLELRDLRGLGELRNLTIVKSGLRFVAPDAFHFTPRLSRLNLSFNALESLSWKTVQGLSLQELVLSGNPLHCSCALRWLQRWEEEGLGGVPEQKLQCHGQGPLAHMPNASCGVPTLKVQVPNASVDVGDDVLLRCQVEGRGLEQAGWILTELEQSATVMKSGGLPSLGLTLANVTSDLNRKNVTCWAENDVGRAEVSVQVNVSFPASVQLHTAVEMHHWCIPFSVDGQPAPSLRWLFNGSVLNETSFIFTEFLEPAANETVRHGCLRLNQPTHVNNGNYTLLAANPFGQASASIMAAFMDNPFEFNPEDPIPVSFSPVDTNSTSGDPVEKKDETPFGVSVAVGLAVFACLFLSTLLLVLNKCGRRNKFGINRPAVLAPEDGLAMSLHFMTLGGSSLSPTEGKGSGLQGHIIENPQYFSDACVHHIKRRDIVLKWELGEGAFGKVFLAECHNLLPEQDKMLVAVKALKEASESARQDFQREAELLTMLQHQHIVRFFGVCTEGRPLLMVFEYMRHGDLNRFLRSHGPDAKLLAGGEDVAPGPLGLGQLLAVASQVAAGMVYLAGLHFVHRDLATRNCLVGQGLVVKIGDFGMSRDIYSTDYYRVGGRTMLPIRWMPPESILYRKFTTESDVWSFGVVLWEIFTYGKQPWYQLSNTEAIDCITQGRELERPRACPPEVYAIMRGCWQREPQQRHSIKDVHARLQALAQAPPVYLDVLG
TrkB (Homo sapiens, UniProt Q16620), sequence (Q16620 32-822, species assumed): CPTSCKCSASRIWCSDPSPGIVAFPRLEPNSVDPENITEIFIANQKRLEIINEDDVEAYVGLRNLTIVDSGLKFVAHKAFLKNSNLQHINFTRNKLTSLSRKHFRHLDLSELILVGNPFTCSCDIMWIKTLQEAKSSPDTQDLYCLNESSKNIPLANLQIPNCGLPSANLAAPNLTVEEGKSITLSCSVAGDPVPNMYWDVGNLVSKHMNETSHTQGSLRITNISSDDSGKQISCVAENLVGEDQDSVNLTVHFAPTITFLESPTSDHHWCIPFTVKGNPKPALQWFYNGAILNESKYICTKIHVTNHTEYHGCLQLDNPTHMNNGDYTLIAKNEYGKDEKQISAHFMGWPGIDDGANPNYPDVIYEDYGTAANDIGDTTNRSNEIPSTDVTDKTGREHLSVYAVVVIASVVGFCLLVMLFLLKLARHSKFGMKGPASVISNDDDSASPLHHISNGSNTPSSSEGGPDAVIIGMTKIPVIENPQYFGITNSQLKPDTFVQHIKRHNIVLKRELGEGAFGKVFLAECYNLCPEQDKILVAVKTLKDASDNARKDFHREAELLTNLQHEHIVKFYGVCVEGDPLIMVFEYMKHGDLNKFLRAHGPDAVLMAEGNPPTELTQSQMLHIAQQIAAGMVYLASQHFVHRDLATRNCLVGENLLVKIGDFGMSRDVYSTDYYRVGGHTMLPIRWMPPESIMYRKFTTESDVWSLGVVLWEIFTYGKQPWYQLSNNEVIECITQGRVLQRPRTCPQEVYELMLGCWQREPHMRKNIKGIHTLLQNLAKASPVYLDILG
TrkB (Mus musculus, UniProt P15209), sequence (P15209 32-821): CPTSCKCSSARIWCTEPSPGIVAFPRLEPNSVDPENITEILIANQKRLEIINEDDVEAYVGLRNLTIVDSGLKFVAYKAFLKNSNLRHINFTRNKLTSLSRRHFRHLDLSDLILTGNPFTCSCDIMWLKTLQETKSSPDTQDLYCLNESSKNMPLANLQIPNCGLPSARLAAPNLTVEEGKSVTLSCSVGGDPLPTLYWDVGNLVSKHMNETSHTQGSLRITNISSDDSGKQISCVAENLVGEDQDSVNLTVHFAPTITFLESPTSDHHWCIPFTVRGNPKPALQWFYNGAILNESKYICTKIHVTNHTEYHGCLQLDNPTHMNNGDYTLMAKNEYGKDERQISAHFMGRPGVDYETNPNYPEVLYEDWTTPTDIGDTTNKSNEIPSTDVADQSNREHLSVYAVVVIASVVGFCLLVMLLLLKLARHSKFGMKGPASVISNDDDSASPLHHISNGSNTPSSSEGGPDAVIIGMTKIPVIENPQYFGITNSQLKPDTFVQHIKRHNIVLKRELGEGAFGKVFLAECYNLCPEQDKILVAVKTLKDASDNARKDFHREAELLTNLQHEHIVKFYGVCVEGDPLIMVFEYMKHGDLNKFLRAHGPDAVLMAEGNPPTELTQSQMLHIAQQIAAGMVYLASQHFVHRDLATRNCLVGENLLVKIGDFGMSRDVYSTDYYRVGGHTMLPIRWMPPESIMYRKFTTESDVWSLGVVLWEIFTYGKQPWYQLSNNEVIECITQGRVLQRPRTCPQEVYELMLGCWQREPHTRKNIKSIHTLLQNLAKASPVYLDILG

As to `Cc1ccccc1CN1CCC(NC(=O)CCc2nnc3ccc(N4CCN(C)CC4)nn23)CC1` [LIT-TB024, N-{1-[(2-methylphenyl)methyl]piperidin-4-yl}-3-[6-(4-methylpiperazin-1-yl)-[1,2,4]triazolo[4,3-b]pyridazin-3-yl]propanamide], the “PAM TrkB activity” value with TrkB [1] is reported as “+++ (+++: >35%)”.

Turning to `CN1CCN(c2ccc3nnc(CCC(=O)NC4CCN(Cc5ccccc5)CC4)n3n2)CC1` [LIT-TB001, N-(1-benzylpiperidin-4-yl)-3-[6-(4-methylpiperazin-1-yl)-[1,2,4]triazolo[4,3-b]pyridazin-3-yl] propanamide], the “TrkB activation (phospho-TrkB/total TrkB) in the brain” value at TrkB [2] was “efficiently increases TrkB activation in the brain”. Also, the “PAM TrkB activity” value with TrkB [1] was “+++ (+++: >35%)”. On TrkB [3], the “phosphorylation of ERK” value is reported as “induced only in the presence of BDNF”. Further, the “phosphorylation of TrkB” value on TrkB [3] (15 min) is “induced only in the presence of BDNF”. The neurite outgrowth entry in the experiment on PC12-TrkB cells was “potentiates BDNF-”. At TrkA, the “phosphorylation of ERK” value is recorded as “did not induce phosphorylation of ERK or TrkA” and the “phosphorylation of TrkA” value is reported as “did not induce phosphorylation of ERK or TrkA”. For the same molecule, the “effect on catalytic activity of 45 kinases (among them TrkA)” value in the experiment on 45 kinases was “does not activate neither block the catalytic activity of the tested kinases”.

For `CN1CCC(NC(=O)CCc2nnc3ccc(N4CCN(C)CC4)nn23)CC1` [LIT-TB016, 3-[6-(4-methylpiperazin-1-yl)-[1,2,4]triazolo[4,3-b]pyridazin-3-yl]-N-(1-methyl-piperidin-4-yl)propanamide], the “PAM TrkB activity” value with TrkB [1] is “+++ (+++: >35%)”.

With `CN1CCN(c2ccc3nnc(CCC(=O)N[C@@H]4CCN(Cc5ccccc5)C[C@@H]4F)n3n2)CC1` [LIT-TB047, N-[(3S,4R)-1-benzyl-3-fluoropiperidin-4-yl]-3-[6-(4-methylpiperazin-1-yl)-[1,2,4]triazolo[4,3-b]pyridazin-3-yl]propanamide], the “PAM TrkB activity” value in the experiment on TrkB [1] is listed as “++ (++: 20-35%)”.

For `COc1ccc(CN2CCC(NC(=O)CCc3nnc4ccc(N5CCN(C)CC5)nn34)CC2)c(C)c1.Cl.Cl` [LIT-TB045, N-{1-[(4-methoxy-2-methylphenyl)methyl]piperidin-4-yl}-3-[6-(4-methylpiperazin-1-yl)-[1,2,4]triazolo[4,3-b]pyridazin-3-yl]propanamide dihydrochloride], the “PAM TrkB activity” value in the experiment with TrkB [1] was “+++ (+++: >35%)”.

For `CN1CCN(c2ccc3ncc(CCC(=O)NC4CCN(Cc5ccccc5)CC4)n3n2)CC1` [LIT-TB014, N-(1-benzylpiperidin-4-yl)-3-(6-(4-methylpiperazin-1-yl)imidazo[1,2-b]pyridazin-3-yl)propanamide], the “PAM TrkB activity” value in the experiment with TrkB [1] was “++ (++: 20-35%)”.

On to `CN1CCN(c2ccc3nnc(CCC(=O)NC4CCN(Cc5ccccc5)CC4)n3c2)CC1` [LIT-TB006, N-(1-benzylpiperidin-4-yl)-3-(6-(4-methylpiperazin-1-yl)-[1,2,4]triazolo[4,3-a]pyridin-3-yl)propanamide], for which the “PAM TrkB activity” value with TrkB [1] is reported as “+++ (+++: >35%)”.
